Legend:
Format in all cases: in vivo, human
[1] = system: premenopausal women with uterine fibroids and heavy menstrual bleeding; experiment: Phase 2a uterine fibroid trial: fibroid volume and uterine volume; conditions: for percent of subjects who achieved a ≥25% reduction in uterine volume: placebo 9%; for percent of subjects who achieved a ≥25% reduction in fibroid volume: placebo 29%
Excerpt: In another embodiment, the present invention relates to methods for reducing the fibroid volume in a subject with uterine fibroids. In one aspect, the methods of the present invention can be used to reduce the fibroid volume by greater than or equal to at least about 25%. In another aspect, the methods of the present invention can be used to reduce the fibroid volume in a subject with uterine fibroids. More specifically, the methods of the present invention can be used to reduce the fibroid volume in a subject with uterine fibroids by volume by greater than or equal to at least about 25%. In another aspect, the methods of the present invention are used to reduce the fibroid volume in a subject with uterine fibroids prior to hysterectomy, myomectomy, or uterine artery embolization. Methods for measuring fibroid volume are known in the art and include ultrasound and/or MRI.
In another embodiment, the present invention relates to methods for reducing the total uterine volume in a subject with uterine fibroids. The “total uterine volume” is the volume of the entire uterus. In one aspect, the methods of the present invention can be used to reduce the total uterine volume by greater than or equal to at least about 25%. In another aspect, the methods of the present invention can be used to reduce the total uterine volume in a subject with uterine fibroids. More specifically, the methods of the present invention can be used to reduce the total uterine volume in a subject with uterine fibroids by greater than or equal to at least about 25%. Methods for measuring total uterine volume are known in the art and include, ultrasound and/or MRI.
This example is a Phase 2a, multicenter, double-blind, placebo-controlled, randomized trial (N=280) with a 3-month treatment duration evaluating the safety and efficacy of Elagolix administered with or without Activella® in premenopausal women with uterine fibroids.
It evaluates the safety and efficacy of […] of Elagolix (100 mg BID, 200 mg BID, 200 mg BID plus low dose Activella® (a combination of 0.5 mg estradiol and 0.1 mg northindrone acetate), 300 mg BID, 300 mg BID plus 1.0 mg of Estrace and 200 mg cyclical Prometrium (collectively referred to as “EP”), 400 mg QD and 600 QD) versus placebo (PBO) to reduce uterine bleeding associated with uterine fibroids and to reduce fibroid volume and uterine volume in premenopausal women 20 to 49 years of age with heavy menstrual bleeding (HMB; >80 mL blood loss per menstrual cycle). The study involved the following six (6) cohorts:
There are a number of efficacy endpoints, but a composite endpoint consisting of two bleeding assessments was used to assess one measure of efficacy. It included the percent of subjects who achieved a menstrual blood loss (MBL) volume of <80 mL at the Final Month (last 28 days of treatment), and also achieved a ≥50% reduction in MBL volume from baseline to the Final Month (last 28 days of treatment) as measured by the Alkaline Hematin (AH) method. Eighty-five percent (85%), 97%, and 30% of subjects achieved the composite bleeding assessment endpoint in the 200 mg BID, 300 mg BID, and placebo groups, respectively (P<0.05 for 200 mg BID versus placebo in cohort 1, and 300 mg BID versus placebo in cohort 2). […]

[2] = system: premenopausal women with endometriosis; experiment: Phase 2 endometriosis studies: endometriosis-associated pain efficacy
Experimental: Six Phase 2 randomized, double-blind, placebo-, and/or active-controlled, parallel-group, multiple dose studies were completed to evaluate elagolix as a treatment for endometriosis associated pain. Efficacy was assessed for dysmenorrhea (DYS), nonmenstrual pelvic pain (NMPP), dyspareunia, and general pelvic pain with a range of instruments.
Additional efficacy assessments included quality of life and the use of analgesics for control of endometriosis pain.
Across these Phase 2 studies, the enrollment criteria were similar and were intended to select premenopausal women aged 18 to 49 years of age with endometriosis confirmed by visual inspection (laparoscopy or laparotomy within 5 to 8 years of screening) who experienced moderate to severe endometriosis-associated pain. Women were included if they had regular menstrual cycles and no significant uterine fibroids or pelvic lesions.
Total daily doses of elagolix ranging from 75 to 250 mg were evaluated across a range of pain instruments measuring DYS, NMPP, or general pelvic pain (including patient global impression of change), during 12 or 24 weeks of treatment.

women with endometriosis = experiment: Phase 2 endometriosis studies: bone mineral density (BMD) over 24 weeks
Experimental: Changes in BMD at the lumbar spine and the femur were evaluated over 24 weeks in three Phase 2 endometriosis studies. […] While a larger effect on BMD is anticipated with a 200 or 300 mg BID regimen compared to that observed with 250 mg QD dosed for 6 months in previous studies, the magnitude of this effect is unknown.

COc1cccc(-c2c(C)n(Cc3c(F)cccc3C(F)(F)F)c(=O)n(C[C@H](NCCCC(=O)O)c3ccccc3)c2=O)c1F [Elagolix, 4-((R)-2-[5-(2-fluoro-3-methoxy-phenyl)-3-(2-fluoro-6-trifluoromethyl-benzyl)-4-methyl-2,6-dioxo-3,6-dihydro-2H-pyrimidin-1-yl]-1-phenyl-ethylamino)-butyric acid]
percent of subjects who achieved a ≥25% reduction in uterine volume ([1]; 200 mg BID): 50% | percent of subjects who achieved a ≥25% reduction in fibroid volume ([1]; 200 mg BID): 63% | percent of subjects who achieved a ≥25% reduction in uterine volume ([1]; 300 mg BID): 68% | percent of subjects who achieved a ≥25% reduction in fibroid volume ([1]; 300 mg BID): 55% | uterine and fibroid volumes (FIG. 4) ([1]; 300 mg BID, within 3 months): strongest effects | quality of life assessments ([2]; Phase 2 endometriosis studies): improved quality of life assessments | symptoms of dyspareunia ([2]; Phase 2 endometriosis studies): reduced | effect on DYS and NMPP compared with DMPA-SC ([2]; daily dose of 150 mg): comparable effect | effect on DYS and NMPP compared with leuprorelin ([2]; daily doses of 150 mg and 250 mg): less effect | endometriosis-associated pain ([2]; daily doses of 100 to 250 mg, 12 or 24 weeks): clinically meaningful reductions | overall usage of analgesics for pain control ([2]; elagolix treatment arms): decreased | subjects with decreases in BMD of the spine that exceeded 5% (women with endometriosis; 75 mg BID, 5/62 subjects, 24 weeks, largest study): 8.1% | largest decrease in BMD of the spine (women with endometriosis; 150 mg QD and 75 mg BID, 24 weeks, largest study): no subject exceeded −8% | subjects with decreases in BMD of the spine that exceeded 5% (women with endometriosis; 150 mg QD, 2/55 subjects, 24 weeks, largest study): 3.6% | bone loss (women with endometriosis; doses that provide partial estrogen suppression (target dose 150 mg QD)): modest degree of bone loss

Reference: patent publication US11707464B2, “Methods of treating heavy menstrual bleeding” (AbbVie Inc., priority 2013, dated 2023)
